Measurements published in paper PMC11980366, “Natural compounds target the M23B zinc metallopeptidase Mpg to modulate Neisseria gonorrhoeae Type IV pilus expression” (mBio, 2025).

Molecular target: Mpg (Neisseria gonorrhoeae, UniProt Q5F676)
Assay: fluorescence thermal shift (Sypro-Orange)
Format: binding
Details: read-out: dTm at 5 μM

Mpg, sequence (Q5F676 31-430): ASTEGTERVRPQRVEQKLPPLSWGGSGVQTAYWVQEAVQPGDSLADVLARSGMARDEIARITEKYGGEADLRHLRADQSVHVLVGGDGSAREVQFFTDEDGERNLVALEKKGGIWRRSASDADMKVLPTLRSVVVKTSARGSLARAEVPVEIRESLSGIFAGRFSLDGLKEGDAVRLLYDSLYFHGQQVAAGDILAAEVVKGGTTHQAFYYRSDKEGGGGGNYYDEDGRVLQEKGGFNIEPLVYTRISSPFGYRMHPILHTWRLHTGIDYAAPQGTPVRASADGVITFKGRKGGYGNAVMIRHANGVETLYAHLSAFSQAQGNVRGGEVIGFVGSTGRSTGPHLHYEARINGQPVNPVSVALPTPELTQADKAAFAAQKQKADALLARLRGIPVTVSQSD

Row | SMILES | ΔTm at 5 µM [°C]
1 | O=C1O[C@H]2[C@@H]3OC(=O)c4cc(O)c(O)c(O)c4-c4c(O)c(O)c5oc(=O)c6c(c(O)c(O)c7oc(=O)c4c5c76)-c4c(cc(O)c(O)c4O)C(=O)OC[C@H]3OC(O)[C@@H]2OC(=O)c2cc(O)c(O)c(O)c2-c2c1cc(O)c(O)c2O (mixture of isomers) [punicalagin] | -4.4
2 | O=C(O)C[C@@H]1C(=O)O[C@H]2[C@H](OC(=O)c3cc(O)c(O)c(O)c3)[C@@H](OC(=O)c3cc(O)c(O)c4c3[C@H]1[C@@H](O)C(=O)O4)[C@H](OC(=O)c1cc(O)c(O)c(O)c1)O[C@@H]2COC(=O)c1cc(O)c(O)c(O)c1 [chebulinic acid] | -2.9
